From patent publication US10065931B2, “Quinazolin crotyl compound dimaleate crystals and preparation methods and uses thereof” (HANGZHOU HUADONG MEDICINE GROUP BIOPHARMACEUTICAL CO., LTD., priority 2015, dated 2018)
Converted amounts (≈) assume the structure as drawn. Where two headings read alike, the source gives them in different places.

Assays:
Assay type in all cases: physicochemical
[1] = Competition of stability between crystal form K and crystal form G in water (XRPD); settings: 12 hours stirring, room temperature
Procedure: After 12 hours of stirring under room temperature, the solid was separated by centrifugation and was subjected to XRPD test, the results are shown in FIG. 20.

[2] = Storage stability test, chemical content by HPLC; settings: for Initial content: before storage; for Chemical stability, 25° C./60% R.H. One week / Chemical stability, 40° C./75% R.H. One week: chemical content as % of initial content; for Chemical content after storage (in words): one week, 40° C./75% R.H.
[3] = Solubility in water, FaSSIF, FeSSIF and SGF
Procedure: Wherein FaSSIF and FeSSIF were prepared according to the method described in the literature: Study of a Standardized Taurocholate-Lecithin Powder for Preparing the Biorelevant Media FeSSIF and FaSSIF (Kloefer, B., van Hoogevest, P., Moloney, R., Kuentz, M., Leigh, M. L., & Dressman, J. (2010). Dissolution Technologies, August 17(3), 6-14. SGF was prepared according to the method described in the literature Albendazole Generics-A Comparative In Vitro Study (Galia E., Horton, J and Dressman J. (1999) Pharmaceutical Research, 16 (12), […]). The test results are summarized in Table 6.

[4] = Second set of competition of stabilities between crystal form K and crystal form F (solid mixture stored 10 days, XRPD)
Description: Then two samples were placed in different environments for 10 days and were subjected to XRPD test respectively.

[5] = Storage stability test, physical stability by XRPD; settings: for XRPD pattern after storage (physical stability): one week of storage, 25° C./60% R.H. and 40° C./75% R.H.
Procedure: In the following examples, the XRPD of the crystal form was determined using a PANalytical Empyrean X-ray powder diffraction analyzer, the parameters are summarized in Table 1.

[6] = First set of competition of stabilities between crystal form K and crystal form F (suspension, different water activities, XRPD); settings: room temperature
Procedure: After 12 hours of stirring under room temperature, the solid was isolated by centrifugation and the XRPD thereof was tested.

| Structure (SMILES) | Initial content [2] | Chemical stability, 25° C./60% R.H. One week [2] | Chemical stability, 40° C./75% R.H. One week [2] | Chemical content after storage (in words) [2] | Solubility ([3]; FaSSIF, pH 6.5) | Solubility ([3]; FeSSIF, pH 5.0) | Solubility ([3]; SGF, pH 1.8) | Solubility ([3]; Water, pH 7.4) | XRPD pattern after storage (physical stability) [5] | also measured |
| --- | --- | --- | --- | --- | --- | --- | --- | --- | --- | --- |
| CN(C)C/C=C/C(=O)Nc1cc2c(Nc3ccc(F)c(Cl)c3)ncnc2cc1OC(F)F [Crystal form G] | 100.0% | 99.8% | 99.6% | stable | – | – | – | – | – | Crystal form after competition with crystal form K in saturated water solution [1]: converted to crystal form K |
| CN(C)C/C=C/C(=O)Nc1cc2c(Nc3ccc(F)c(Cl)c3)ncnc2cc1OC(F)F [Crystal form F] | 100.0% | 99.8% | 99.7% | stable | 2440 µg/mL (≈ 5.24 mM) | 570 µg/mL (≈ 1.22 mM) | >10650 µg/mL | >9810 µg/mL | basically the same | Crystal form after storage of crystal form F mixed with about 1% crystal form K ([4]; 25° C., 60% R.H.): form F; Crystal form after storage of crystal form F mixed with about 1% crystal form K ([4]; 25° C., 60% R.H., listed as crystal form F): did not change; Crystal form after storage of crystal form F mixed with about 1% crystal form K ([4]; 40° C., 75% R.H.): form K; Crystal form after storage of crystal form F mixed with about 1% crystal form K ([4]; 40° C., 75% R.H., listed as crystal form F): converted to the crystal form K |
| CN(C)C/C=C/C(=O)Nc1cc2c(Nc3ccc(F)c(Cl)c3)ncnc2cc1OC(F)F [Crystal form E] | 100.0% | 99.8% | 99.5% | – | – | – | – | – | – | – |

Second part, led by results:

| Initial content [2] | Chemical stability, 25° C./60% R.H. One week [2] | Chemical stability, 40° C./75% R.H. One week [2] | Chemical content after storage (in words) [2] | Solubility ([3]; FaSSIF, pH 6.5) | Solubility ([3]; FeSSIF, pH 5.0) | Solubility ([3]; SGF, pH 1.8) | Solubility ([3]; Water, pH 7.4) | XRPD pattern after storage (physical stability) [5] | Structure (SMILES) | also measured |
| --- | --- | --- | --- | --- | --- | --- | --- | --- | --- | --- |
| 100.0% | 99.9% | 99.8% | stable | 8360 µg/mL (≈ 17.9 mM) | 1240 µg/mL (≈ 2.66 mM) | >9950 µg/mL | >10020 µg/mL | basically the same | CN(C)C/C=C/C(=O)Nc1cc2c(Nc3ccc(F)c(Cl)c3)ncnc2cc1OC(F)F [Crystal form K] | Water activity at which crystal form K is thermodynamically more stable than crystal form F [6]: greater than or equal to 0.15; Crystal form after competition with crystal form F ([6]; water activity 0.00, IPA, 12 hours stirring): Crystal form F; Crystal form after competition with crystal form F ([6]; water activity 0.15, IPA:H2O 99:1, 12 hours stirring): Crystal form K; Crystal form after competition with crystal form F ([6]; water activity 0.39, IPA:H2O 24:1, 12 hours stirring): Crystal form K; Crystal form after competition with crystal form F ([6]; water activity 0.60, ACN:H2O 19:1, 12 hours stirring): Crystal form K; Crystal form after competition with crystal form F ([6]; water activity 0.80, ACN:H2O 9:1, 12 hours stirring): Crystal form K; XRPD pattern after storage (physical and chemical stability) ([5]; 6 months of storage, 40° C./75% R.H.): basically the same |
| 100.0% | 99.8% | 94.8% | – | 30 µg/mL (≈ 0.0644 mM) | 100 µg/mL (≈ 0.215 mM) | – | <2.5 µg/mL | changed significantly | CN(C)C/C=C/C(=O)Nc1cc2c(Nc3ccc(F)c(Cl)c3)ncnc2cc1OC(F)F [Free base] | Water solubility (in words) [3]: poor; Solubility ([3]; SGF, pH 1.8, simulated gastric fluid, thermodynamic from solid, SGF, pH 1.8, read-out: Solubility): 8370 µg/mL (≈ 18 mM); Chemical stability, 40° C./75% R.H. One week ([2]; listed as free base): 94.8%; Long-term storage stability (in words) [5]: poor |
